Results taken from the OligoGym collection.
These antisense oligonucleotides have a phosphorothioate backbone; sugars and methylation of C are not fully specified.

Columns and labels:
Conditions in all cases: ASO
RHOG = target: RHOG
CHEK2 = target: CHEK2
RIPK2 = target: RIPK2
PRKAR2A = target: PRKAR2A
Further: test concentration or dose not given here.

In the case of AAAAGGCATTCAGGGAAC, the remaining target (mRNA or protein) (fraction of control) (RHOG) was ≥ 1.

In the case of AAACTTTCTCTTCATGTCTT, the remaining target (mRNA or protein) (fraction of control) (CHEK2) was ≥ 1.

With AAAGCGTTAGTTGTGTAG the remaining target (mRNA or protein) (fraction of control) (RHOG) was ≥ 1.

AAATAACAGTCTTGAGCTTT gave a remaining target (mRNA or protein) (fraction of control) (RIPK2) of 0.73.

With AACATCCGACTCCCGAGACA the remaining target (mRNA or protein) (fraction of control) (CHEK2) was 0.65.

In the case of AACTGTGTGGAAAGCTGG, the remaining target (mRNA or protein) (fraction of control) (RHOG) was 0.92.

AACTTCTTGACAAGGTCCAG showed a remaining target (mRNA or protein) (fraction of control) (CHEK2) of 0.8.

Work on AAGAGGATGCAGGACCGC yielded a remaining target (mRNA or protein) (fraction of control) (RHOG) of 0.82.

AAGCCTGGGATTTTAGGGCA showed a remaining target (mRNA or protein) (fraction of control) (RIPK2) of 0.15.

With AAGGAGAATATCTTTGCAAG the remaining target (mRNA or protein) (fraction of control) (PRKAR2A) was ≥ 1.

Work on AAGGCTTCTTCTGTCGTAAA yielded a remaining target (mRNA or protein) (fraction of control) (CHEK2) of 0.96.

For AAGGGCCCATAATCGAGCCC, the remaining target (mRNA or protein) (fraction of control) (CHEK2) was 0.78.

For AATCCGAAAGTGTTTCTTGC, the remaining target (mRNA or protein) (fraction of control) (CHEK2) was ≥ 1.

AATGCCCATAACCACAGCAA was tested, and the remaining target (mRNA or protein) (fraction of control) (PRKAR2A) was 0.39.

With ACACCATCCTGTTGCAGG the remaining target (mRNA or protein) (fraction of control) (RHOG) was 0.77.

Work on ACAGCCTCGGCGAACACT yielded a remaining target (mRNA or protein) (fraction of control) (RHOG) of 0.94.

Work on ACATTCACCTTCTCAGGA yielded a remaining target (mRNA or protein) (fraction of control) (RHOG) of 0.8.

For ACCACAATAGGCAGCAAC, the remaining target (mRNA or protein) (fraction of control) (RHOG) was 0.69.

For ACCTCTGGATGCCACTTG, the remaining target (mRNA or protein) (fraction of control) (RHOG) was 0.65.

Work on ACGTTGGTCTGAGGGTAG yielded a remaining target (mRNA or protein) (fraction of control) (RHOG) of 0.62.

AGAATAACTCCTAAACTCCA gave a remaining target (mRNA or protein) (fraction of control) (CHEK2) of 0.82.

In the case of AGATGGCCTCCCCGTTCATG, the remaining target (mRNA or protein) (fraction of control) (RIPK2) was 0.51.

Sequence AGCAGTCCCAACAGAAACAA has a remaining target (mRNA or protein) (fraction of control) (CHEK2) of 0.95.

In the case of AGCTGGATGAACTGGTCA, the remaining target (mRNA or protein) (fraction of control) (RHOG) was 0.77.

With AGGAATAGAATAGAGTTCCT the remaining target (mRNA or protein) (fraction of control) (CHEK2) was ≥ 1.

In the case of AGGCGGGTGAAGTACTCCAC, the remaining target (mRNA or protein) (fraction of control) (PRKAR2A) was 0.46.

Sequence AGGCTTCTGTCATTTGGTTC has a remaining target (mRNA or protein) (fraction of control) (RIPK2) of 0.3.

With AGGGCAGTGGTGGCACAC the remaining target (mRNA or protein) (fraction of control) (RHOG) was 0.85.

Work on ATAAAGCTTTAATACTCACG yielded a remaining target (mRNA or protein) (fraction of control) (RIPK2) of 0.93.

In the case of ATAACTAAGCATTTGACATC, the remaining target (mRNA or protein) (fraction of control) (PRKAR2A) was 0.94.

For ATACTTCATAAAATCAAATT, the remaining target (mRNA or protein) (fraction of control) (RIPK2) was ≥ 1.

Work on ATCAGGCTGTTGACTTTATT yielded a remaining target (mRNA or protein) (fraction of control) (RIPK2) of 0.53.

For ATCTGGATGTGGCTCATGCC, the remaining target (mRNA or protein) (fraction of control) (PRKAR2A) was 0.82.

Sequence ATCTGTATCTTCCTCTTCCT has a remaining target (mRNA or protein) (fraction of control) (PRKAR2A) of 0.73.

With ATGCAGCCCTTTGAGAACCA the remaining target (mRNA or protein) (fraction of control) (RIPK2) was 0.18.

ATGGCCTCCCCGTTCATGGT showed a remaining target (mRNA or protein) (fraction of control) (RIPK2) of 0.51.

Work on ATGTAACTAAATCTAGCTTT yielded a remaining target (mRNA or protein) (fraction of control) (RIPK2) of 0.72.

For ATGTGGCTCATGCCGGCGGC, the remaining target (mRNA or protein) (fraction of control) (PRKAR2A) was 0.95.

Sequence ATTCTCTGGCTTTAAGTCAC has a remaining target (mRNA or protein) (fraction of control) (CHEK2) of 0.63.

In the case of ATTGCATCTTAGACAAGTAA, the remaining target (mRNA or protein) (fraction of control) (RIPK2) was ≥ 1.

Work on ATTTCTGCTTAGTGACAGTG yielded a remaining target (mRNA or protein) (fraction of control) (CHEK2) of 0.65.

ATTTTCATGGAGCTGAGAGG showed a remaining target (mRNA or protein) (fraction of control) (RIPK2) of 0.68.

Sequence CAATGACATGCTCATCAGCT has a remaining target (mRNA or protein) (fraction of control) (PRKAR2A) of 0.74.

With CAATGGAGAAACAGATGA the remaining target (mRNA or protein) (fraction of control) (RHOG) was ≥ 1.

CAATTCCAAGAGCAGCGA was tested, and the remaining target (mRNA or protein) (fraction of control) (RHOG) was 0.82.

Work on CACACCTACTGCCCGAGGTT yielded a remaining target (mRNA or protein) (fraction of control) (PRKAR2A) of 0.38.

CACCAAGGGCAATTTCATGC was tested, and the remaining target (mRNA or protein) (fraction of control) (RIPK2) was 0.15.

In the case of CAGAGTGAAAGAAGGACATT, the remaining target (mRNA or protein) (fraction of control) (CHEK2) was ≥ 1.

In the case of CAGCAGGATGGGCACATC, the remaining target (mRNA or protein) (fraction of control) (RHOG) was 0.8.

Work on CAGGAACAGTTCTGTCATGT yielded a remaining target (mRNA or protein) (fraction of control) (PRKAR2A) of 0.65.

Sequence CAGTAGTTGTCATTCACACA has a remaining target (mRNA or protein) (fraction of control) (CHEK2) of 0.49.

In the case of CAGTGTCCCAGAGCTGGAGT, the remaining target (mRNA or protein) (fraction of control) (CHEK2) was ≥ 1.

For CATAGGACGGCGGACTGG, the remaining target (mRNA or protein) (fraction of control) (RHOG) was 0.83.

CATGAGAGAGGTCTCTCCCA was tested, and the remaining target (mRNA or protein) (fraction of control) (CHEK2) was 0.85.

CATGCCGGCGGCGGCCGAAG was tested, and the remaining target (mRNA or protein) (fraction of control) (PRKAR2A) was ≥ 1.

For CATGGTCCCGGGCGCTCAGG, the remaining target (mRNA or protein) (fraction of control) (RIPK2) was ≥ 1.

In the case of CATTCGAGGTAGCGCACA, the remaining target (mRNA or protein) (fraction of control) (RHOG) was 0.61.

CCACAAGTATTTCCGGGTAA showed a remaining target (mRNA or protein) (fraction of control) (RIPK2) of 0.36.

CCACGGAGTTCACAACACAG gave a remaining target (mRNA or protein) (fraction of control) (CHEK2) of 0.74.

CCAGGCTGCAGACGTTCTGA showed a remaining target (mRNA or protein) (fraction of control) (RIPK2) of 0.3.

With CCATCAATTCCAAAACAATA the remaining target (mRNA or protein) (fraction of control) (CHEK2) was ≥ 1.

In the case of CCATGCAGGGCCCCAGAAGC, the remaining target (mRNA or protein) (fraction of control) (PRKAR2A) was 0.52.

Sequence CCATTGCCACTGTGATCTTC has a remaining target (mRNA or protein) (fraction of control) (CHEK2) of 0.46.

CCCGAGGTTGCCCAGATCCA was tested, and the remaining target (mRNA or protein) (fraction of control) (PRKAR2A) was ≥ 1.

CCCGTTCATGGTCCCGGGCG showed a remaining target (mRNA or protein) (fraction of control) (RIPK2) of 0.6.

CCTCCCCGTTCATGGTCCCG gave a remaining target (mRNA or protein) (fraction of control) (RIPK2) of 0.24.

Work on CGAACCAGAGCTGACTTCTT yielded a remaining target (mRNA or protein) (fraction of control) (RIPK2) of 0.28.

CGCACGGCCCCGGCTCACGT gave a remaining target (mRNA or protein) (fraction of control) (PRKAR2A) of 0.68.
